What was measured:
[1] = system: monoclonal antibody 14H04; test: ACMIA cross-reactivity / binding of tacrolimus derivatives to monoclonal antibody 14H04; parameters: species or system mouse; details: ACMIA format
Method: The monoclonal antibody for region 14 may be identified by a screening method as follows: The binding region of an antibody clone was identified based on its binding properties to different tacrolimus derivatives such as metabolites and immunogens.
Measurements of tacrolimus derivatives by the ACMIA assay format were carried out according to the following procedure. Metabolites were obtained from Isotechnika Pharma Inc (Alberta, Canada) and Dr. Christistians Laboratory at University of Colorado in Denver, Colo. The tacrolimus derivative compounds such as immunogens were obtained from Siemens AG (Glasgow, Del.). The metabolite and immunogen cross-reactivity was measured using the ACMIA methodology described in U.S. Pat. No. 7,186,518, the relevant disclosure of which is incorporated herein by reference. Briefly, both clones were conjugated to β-galactosidase using a standard heterobifunctional SMCC (succinimidyl trans-4-(N-maleimidylmethyl)cyclohexane-1-carboxylate) linker according to known techniques. […] The cross reactivity was detected by testing the samples containing spiked metabolites and other tacrolimus derivatives such as the immunogens. […] Cross-reactivity was determined by dividing the apparent tacrolimus concentration by the concentration of added metabolite and expressing the result as a percentage.

monoclonal antibody 1E2 = test: ACMIA cross-reactivity / binding of tacrolimus derivatives to monoclonal antibody 1E2; parameters: species or system mouse; details: ACMIA format, 1E2-β-galactosidase conjugate, tacrolimus C32 fluorescein derivative chrome particles
Method: The monoclonal antibody for region 12 may be identified by the following screening method. […] Modification of the hydroxyl group linked to C24 weakened the binding of monoclonal antibody 1E2 to tacrolimus.
Measurements of tacrolimus derivatives by the ACMIA assay format were carried out according to the following procedure. Metabolites were obtained from Isotechnika Pharma Inc (Alberta, Canada) and Dr. Christistians Laboratory at University of Colorado in Denver, Colo. The tacrolimus derivative compounds such as immunogens were obtained from Siemens AG (Glasgow, Del.). The metabolite and immunogen cross-reactivity was measured using the ACMIA methodology described in U.S. Pat. No. 7,186,518, the relevant disclosure of which is incorporated herein by reference. Briefly, both clones were conjugated to β-galactosidase using a standard heterobifunctional SMCC (succinimidyl trans-4-(N-maleimidylmethyl)cyclohexane-1-carboxylate) linker according to known techniques. Chrome particles (immunoassay solid phase) were prepared by conjugating tacrolimus analogs to bovine immunoglobulin and then to polyaldehyde dextran coated chromium dioxide particles. The tacrolimus analog used for monoclonal antibody 14H04 was a tacrolimus C22 oxime compound. The analog used for monoclonal antibody 1E2 was a tacrolimus C32 fluorescein derivative immobilized on anti-fluorescein antibody coated chromium dioxide particles. The cross reactivity was detected by testing the samples containing spiked metabolites and other tacrolimus derivatives such as the immunogens. The assay signals obtained from the samples containing the spiked metabolites were compared to the signals obtained from the samples containing tacrolimus standards. Cross-reactivity was determined by dividing the apparent tacrolimus concentration by the concentration of added metabolite and expressing the result as a percentage.

SMILES | cross-reactivity with monoclonal antibody 14H04 ([1]; spiked metabolite compared with tacrolimus standards) | binding to monoclonal antibody 1E2 (monoclonal antibody 1E2) | binding to monoclonal antibody 14H04 ([1]; 14H04-β-galactosidase conjugate, tacrolimus C22 oxime chrome particles)
C=CCC1C=C(C)CC(C)CC(O)C2OC(O)(C(=O)C(=O)N3CCCCC3C(=O)OC(C(C)=CC3CCC(O)C(OC)C3)C(C)C(O)CC1=O)C(C)CC2OC (stereo not drawn) [15-O-demethyl tacrolimus, 15-O-desmethyl-tacrolimus] | no cross-reactivity | – | –
C=CCC1C=C(C)CC(C)CC(OC)C2OC(O)(C(=O)C(=O)N3CCCCC3C(=O)OC(C(C)=CC3CCC(O)C(O)C3)C(C)C(O)CC1=O)C(C)CC2OC (stereo not drawn) [31-O-desmethyl, 31-O-desmethyl Tacrolimus] | – | does not decrease binding | –
C=CCC1C=C(C)CC(C)CC(OC)C2OC(O)(C(=O)C(=O)N3CCCCC3C(=O)OC(C(C)=CC3CCC(O)C(OC)C3)C(C)C(O)CC1=O)C(C)CC2O (stereo not drawn) [M1, 13-O-desmethyl-tacrolimus] | – | removed the binding | –
C=CCC1C=C(C)CC(C)CC(OC)C2OC(O)(C(=O)C(=O)N3CCCCC3C(=O)OC(C(C)=CC3CCC(O)C(O)C3)C(C)C(O)CC1=O)C(C)CC2O (stereo not drawn) [MVI, 13,31-O-didesmethyl-tacrolimus] | – | removed the binding | –
C=CCC1C=C(C)CC(C)CC(OC)C2OC(O)(C(=O)C(=O)N3CCCCC3C(=O)OC(C(C)=CC3CCC(O)C(OC)C3)C(C)C(O)CC1=NO)C(C)CC2OC (stereo not drawn) [tacrolimus C22 oxime] | – | does not bind | strong binding

Source: patent publication US8586322B2, “Sandwich assay for immunosuppressant drugs” (Siemens Healthcare Diagnostics, Inc, priority 2012, dated 2013)
